The source of these data is ChEMBL document CHEMBL1777722, “Design and synthesis of 5,6-fused heterocyclic amides as Raf kinase inhibitors” (Bioorg Med Chem Lett, 2011).

Active and inactive are the calls of the source. The rule behind the calls is not given here.

In series [1] the target is RAF proto-oncogene serine/threonine-protein kinase (Homo sapiens, UniProt P04049). Put plainly: Inhibition of c-Raf assessed as phosphorylation of MEK1/2 by ELISA.
For series [2], the target named is T1, Serine/threonine-protein kinase B-raf (Homo sapiens, UniProt P15056, V600E). Put plainly: Inhibition of B-Raf V599E mutant assessed as phosphorylation of MEK1/2 by ELISA.
For series [3], the target named is T1, Serine/threonine-protein kinase B-raf. Briefly: Inhibition of BRAF V600E mutant-mediated ERK phosphorylation in human SKMEL-28 cells by immunoblotting method. Format: cell-based, MEL-28.
The test system of the next series is Mus musculus. Put plainly: Volume of distribution in mouse at 20 mg/kg, po administered as single dose. It is filed as ADME, organism-based. Further details: dose 20 mg/kg, route oral. The following applies: in vivo.
The nature of series [4]: Half life in mouse at 20 mg/kg, po administered as single dose. Further details: dose 20 mg/kg, route oral. It is filed as ADME, organism-based. The following applies: in vivo.
The nature of series [5]: Clearance in mouse at 20 mg/kg, po administered as single dose. Format: ADME, organism-based. Further details: dose 20 mg/kg, route oral. To be noted: in vivo.
The nature of series [6]: Oral bioavailability in mouse at 20 mg/kg administered as single dose. It is filed as ADME, organism-based. The following applies: in vivo.
Series [7] concerns the target Macrophage colony-stimulating factor 1 receptor (Homo sapiens) (UniProt P07333). Briefly: Inhibition of CSFR1.
The target in series [8] is Proto-oncogene tyrosine-protein kinase receptor Ret (Homo sapiens) (UniProt P07949). Briefly: Inhibition of Ret.
Series [9] addresses Receptor-type tyrosine-protein kinase FLT3 (Homo sapiens) (UniProt P36888). Briefly: Inhibition of Flt3.
For series [10], the target named is Tyrosine-protein kinase ABL1 (Homo sapiens) (UniProt P00519). Put plainly: Inhibition of cABL.
Series [11] concerns the target Vascular endothelial growth factor receptor 2 (Homo sapiens) (UniProt P35968). Briefly: Inhibition of KDR.

T1 sequence (P15056 2-766 V600E limits assumed): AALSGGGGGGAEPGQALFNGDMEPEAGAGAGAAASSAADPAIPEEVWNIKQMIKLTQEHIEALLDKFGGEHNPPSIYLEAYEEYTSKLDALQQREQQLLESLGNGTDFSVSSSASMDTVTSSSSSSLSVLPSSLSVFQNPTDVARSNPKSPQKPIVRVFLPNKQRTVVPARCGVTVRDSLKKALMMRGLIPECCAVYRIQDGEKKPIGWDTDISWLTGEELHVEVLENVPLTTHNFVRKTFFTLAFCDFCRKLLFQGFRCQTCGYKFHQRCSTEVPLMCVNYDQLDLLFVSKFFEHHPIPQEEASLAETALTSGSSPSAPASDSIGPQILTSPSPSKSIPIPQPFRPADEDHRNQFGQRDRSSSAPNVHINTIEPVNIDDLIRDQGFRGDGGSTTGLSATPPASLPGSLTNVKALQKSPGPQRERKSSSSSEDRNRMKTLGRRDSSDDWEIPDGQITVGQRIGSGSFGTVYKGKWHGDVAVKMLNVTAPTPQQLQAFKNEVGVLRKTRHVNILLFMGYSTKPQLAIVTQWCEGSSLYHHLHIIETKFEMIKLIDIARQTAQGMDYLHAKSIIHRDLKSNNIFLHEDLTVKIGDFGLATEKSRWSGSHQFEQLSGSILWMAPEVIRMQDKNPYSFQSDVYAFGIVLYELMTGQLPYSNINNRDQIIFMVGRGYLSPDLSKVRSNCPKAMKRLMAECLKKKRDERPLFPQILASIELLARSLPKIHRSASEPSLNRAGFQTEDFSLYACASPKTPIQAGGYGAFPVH
RAF proto-oncogene serine/threonine-protein kinase, sequence (P04049 whole entry): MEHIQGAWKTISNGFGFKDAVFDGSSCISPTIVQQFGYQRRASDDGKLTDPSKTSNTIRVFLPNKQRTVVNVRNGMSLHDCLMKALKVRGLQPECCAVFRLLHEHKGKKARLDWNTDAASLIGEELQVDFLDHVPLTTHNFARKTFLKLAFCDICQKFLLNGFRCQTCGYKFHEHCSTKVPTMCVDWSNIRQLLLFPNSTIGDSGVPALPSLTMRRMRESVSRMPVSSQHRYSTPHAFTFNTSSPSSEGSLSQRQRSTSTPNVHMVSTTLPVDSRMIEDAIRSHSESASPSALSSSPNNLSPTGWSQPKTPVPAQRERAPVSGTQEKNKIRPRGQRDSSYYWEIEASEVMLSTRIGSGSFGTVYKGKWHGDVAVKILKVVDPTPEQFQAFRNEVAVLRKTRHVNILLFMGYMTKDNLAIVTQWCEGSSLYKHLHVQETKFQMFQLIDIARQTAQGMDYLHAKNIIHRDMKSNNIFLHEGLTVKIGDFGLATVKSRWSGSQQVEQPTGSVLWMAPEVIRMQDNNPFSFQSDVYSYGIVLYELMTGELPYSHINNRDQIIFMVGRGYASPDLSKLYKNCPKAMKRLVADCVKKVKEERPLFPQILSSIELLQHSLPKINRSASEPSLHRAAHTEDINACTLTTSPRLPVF
Receptor-type tyrosine-protein kinase FLT3 (Homo sapiens), sequence (P36888 whole entry): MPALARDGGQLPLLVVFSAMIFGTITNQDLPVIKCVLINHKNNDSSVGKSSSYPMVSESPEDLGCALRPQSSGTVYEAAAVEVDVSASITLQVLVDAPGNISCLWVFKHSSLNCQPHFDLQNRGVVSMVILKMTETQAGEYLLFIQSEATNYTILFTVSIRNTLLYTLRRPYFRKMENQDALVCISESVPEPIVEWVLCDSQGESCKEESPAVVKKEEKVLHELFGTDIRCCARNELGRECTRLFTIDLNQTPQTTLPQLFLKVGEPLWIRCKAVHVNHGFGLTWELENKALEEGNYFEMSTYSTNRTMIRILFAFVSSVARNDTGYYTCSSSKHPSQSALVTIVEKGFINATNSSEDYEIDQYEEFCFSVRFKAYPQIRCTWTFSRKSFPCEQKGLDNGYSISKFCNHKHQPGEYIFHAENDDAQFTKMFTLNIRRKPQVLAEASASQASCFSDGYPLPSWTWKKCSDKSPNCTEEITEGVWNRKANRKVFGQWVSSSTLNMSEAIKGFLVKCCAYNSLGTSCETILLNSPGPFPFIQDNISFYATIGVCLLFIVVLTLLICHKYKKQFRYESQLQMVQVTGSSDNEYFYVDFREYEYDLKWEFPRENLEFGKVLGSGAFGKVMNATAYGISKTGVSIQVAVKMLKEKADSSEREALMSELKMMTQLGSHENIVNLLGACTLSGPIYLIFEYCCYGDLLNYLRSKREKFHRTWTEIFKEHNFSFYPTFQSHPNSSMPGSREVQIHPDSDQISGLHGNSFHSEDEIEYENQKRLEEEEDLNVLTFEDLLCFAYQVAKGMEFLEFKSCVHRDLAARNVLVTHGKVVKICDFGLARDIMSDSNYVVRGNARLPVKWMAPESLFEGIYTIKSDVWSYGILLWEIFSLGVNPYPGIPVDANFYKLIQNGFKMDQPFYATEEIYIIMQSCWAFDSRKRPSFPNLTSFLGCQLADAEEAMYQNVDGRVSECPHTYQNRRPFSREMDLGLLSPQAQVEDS
Vascular endothelial growth factor receptor 2 (Homo sapiens), sequence (P35968 whole entry): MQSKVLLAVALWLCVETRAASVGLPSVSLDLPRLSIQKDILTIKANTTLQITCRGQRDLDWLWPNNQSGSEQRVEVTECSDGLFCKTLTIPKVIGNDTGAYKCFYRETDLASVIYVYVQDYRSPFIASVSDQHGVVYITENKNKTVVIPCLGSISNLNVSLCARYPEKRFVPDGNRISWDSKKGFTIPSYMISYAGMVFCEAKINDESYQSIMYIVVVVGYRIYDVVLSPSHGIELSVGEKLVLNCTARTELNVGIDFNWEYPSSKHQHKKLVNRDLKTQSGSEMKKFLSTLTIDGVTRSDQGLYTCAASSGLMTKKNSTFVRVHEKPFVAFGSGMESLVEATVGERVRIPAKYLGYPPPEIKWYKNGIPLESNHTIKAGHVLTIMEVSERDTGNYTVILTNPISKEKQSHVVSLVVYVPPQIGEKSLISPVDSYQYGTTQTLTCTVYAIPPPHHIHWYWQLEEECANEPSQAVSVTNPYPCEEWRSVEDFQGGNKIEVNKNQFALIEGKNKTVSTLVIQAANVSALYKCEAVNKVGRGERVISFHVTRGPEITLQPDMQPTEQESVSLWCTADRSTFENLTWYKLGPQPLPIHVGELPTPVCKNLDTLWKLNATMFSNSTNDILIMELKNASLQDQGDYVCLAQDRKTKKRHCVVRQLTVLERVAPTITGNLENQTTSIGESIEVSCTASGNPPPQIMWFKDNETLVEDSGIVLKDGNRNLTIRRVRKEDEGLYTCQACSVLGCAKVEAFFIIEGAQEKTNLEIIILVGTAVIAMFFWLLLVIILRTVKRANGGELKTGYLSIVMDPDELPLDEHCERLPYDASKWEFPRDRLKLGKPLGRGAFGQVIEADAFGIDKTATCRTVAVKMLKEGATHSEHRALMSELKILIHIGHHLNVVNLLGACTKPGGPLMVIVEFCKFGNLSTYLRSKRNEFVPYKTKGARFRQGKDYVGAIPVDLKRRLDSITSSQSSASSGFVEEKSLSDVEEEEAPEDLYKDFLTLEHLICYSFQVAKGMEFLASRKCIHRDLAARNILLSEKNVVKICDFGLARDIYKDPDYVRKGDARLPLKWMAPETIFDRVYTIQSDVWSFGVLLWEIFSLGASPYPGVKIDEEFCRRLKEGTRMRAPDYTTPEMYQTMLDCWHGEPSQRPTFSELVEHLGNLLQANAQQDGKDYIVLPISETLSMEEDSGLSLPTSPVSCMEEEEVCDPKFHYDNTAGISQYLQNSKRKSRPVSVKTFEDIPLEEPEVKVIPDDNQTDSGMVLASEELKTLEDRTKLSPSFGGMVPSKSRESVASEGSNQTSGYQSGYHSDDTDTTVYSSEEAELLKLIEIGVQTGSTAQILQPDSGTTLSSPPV
Tyrosine-protein kinase ABL1 (Homo sapiens), sequence (P00519 whole entry): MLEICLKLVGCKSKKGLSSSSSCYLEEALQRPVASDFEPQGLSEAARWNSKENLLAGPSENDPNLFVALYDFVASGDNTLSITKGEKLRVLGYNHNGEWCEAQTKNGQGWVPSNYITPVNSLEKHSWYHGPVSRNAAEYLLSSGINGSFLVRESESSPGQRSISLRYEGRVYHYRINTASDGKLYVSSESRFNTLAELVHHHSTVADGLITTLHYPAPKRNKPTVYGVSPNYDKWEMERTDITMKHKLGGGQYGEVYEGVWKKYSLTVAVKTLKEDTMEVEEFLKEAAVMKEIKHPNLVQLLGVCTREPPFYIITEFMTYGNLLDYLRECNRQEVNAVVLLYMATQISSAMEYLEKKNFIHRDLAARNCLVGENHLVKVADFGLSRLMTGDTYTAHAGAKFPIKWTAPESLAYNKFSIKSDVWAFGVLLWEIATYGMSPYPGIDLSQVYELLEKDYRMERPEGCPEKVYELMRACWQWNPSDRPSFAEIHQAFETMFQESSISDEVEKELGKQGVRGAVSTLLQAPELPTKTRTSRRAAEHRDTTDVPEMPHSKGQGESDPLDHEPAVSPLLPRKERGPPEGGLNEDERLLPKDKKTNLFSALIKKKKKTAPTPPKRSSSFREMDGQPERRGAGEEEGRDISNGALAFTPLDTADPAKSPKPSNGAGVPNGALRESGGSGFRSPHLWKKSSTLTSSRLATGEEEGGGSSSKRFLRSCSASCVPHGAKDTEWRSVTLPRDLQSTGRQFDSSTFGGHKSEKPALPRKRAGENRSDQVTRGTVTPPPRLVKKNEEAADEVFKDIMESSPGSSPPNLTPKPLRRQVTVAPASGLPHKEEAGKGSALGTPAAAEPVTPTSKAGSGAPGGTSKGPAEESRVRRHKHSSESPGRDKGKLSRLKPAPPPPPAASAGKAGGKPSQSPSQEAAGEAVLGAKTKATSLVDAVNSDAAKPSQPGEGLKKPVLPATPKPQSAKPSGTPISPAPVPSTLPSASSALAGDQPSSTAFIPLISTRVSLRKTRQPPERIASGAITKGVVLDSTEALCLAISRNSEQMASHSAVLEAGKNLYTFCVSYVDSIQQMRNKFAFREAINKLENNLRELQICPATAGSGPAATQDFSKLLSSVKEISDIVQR

Take `CC(C)c1cccc(Nc2nc3cc(Oc4ccnc(C(=O)NCCN5CCOCC5)c4)ccc3o2)c1`: the IC50 in series [1] was 140 nM; in series [2] it was 200 nM.

As for `CNC(=O)c1cc(Oc2ccc3sc(Nc4ccc(Br)cc4)nc3c2)ccn1`, the IC50 worked out at 2 nM in series [1] and 7 nM in [2]. This compound displayed an EC50 in series [3] of more than 10000 nM.

`CNC(=O)c1cc(Oc2ccc3c(c2)nc(Nc2cccc(C(C)(C)C)c2)n3C)ccn1`: in series [2], the IC50 is 120 nM. The EC50 in series [3] was found to be 280 nM.

For the compound `CNC(=O)c1cc(Oc2ccc3oc(Nc4ccc(N(C)C)cc4)nc3c2)ccn1`, the IC50 was 12 nM in [1] and 130 nM in series [2].

For the compound `CC(C)c1cccc(Nc2nc3cc(Oc4ccnc(C(N)=O)c4)ccc3o2)c1`, the IC50 in series [1] and in series [2] was 4 nM throughout. The compound also came in with an EC50 in series [3] of 3700 nM.

For `CNC(=O)c1cc(Oc2ccc3oc(Nc4ccc(Br)cc4)nc3c2)ccn1`, the IC50 came out at 3 nM in series [1] and 25 nM in series [2]. For the same compound, it took 10000 nM to reach a half-maximal effect in series [3] (EC50).

For `CC(C)(C)c1cccc(Nc2nc3cc(Oc4ccnc(C(N)=O)c4)ccc3s2)c1`, the IC50 in [1] is 1 nM; in series [2] it was 2 nM. It took 2900 nM to reach a half-maximal effect in series [3] (EC50).

As to `CNC(=O)c1cc(Oc2ccc3sc(Nc4ccc(C)cc4)nc3c2)ccn1`, the Vd with Mus musculus was determined as 1.042 L/kg. The same compound yielded a half-life in [4] of 80 min. Further, the figures for the IC50 in series [1] and in series [2] were 7 nM and 26 nM, respectively. Also, the apparent clearance CL/F in [5] amounted to 14.1 mL/min/kg. For the same compound, the bioavailability in series [6] came out at 90%.

In the case of `CNC(=O)c1cc(Oc2ccc3oc(Nc4cccc(C(C)(C)C)c4)nc3c2)ccn1`, the figures for the IC50 in series [1] and in [2] were 1 nM and 6 nM, respectively. Further, in series [3], the response was half-maximal at 1000 nM (EC50).

Regarding `CNC(=O)c1cc(Oc2ccc3oc(Nc4ccc(Cl)cc4)nc3c2)ccn1`, the IC50 in [1] came out at 19 nM; in [2], 21 nM.

As for `CNC(=O)c1cc(Oc2ccc3oc(Nc4cccc(C(C)C)c4)nc3c2)ccn1`, the IC50 in series [1] was determined as 3 nM. The inhibition entry in [7], in [8], in series [9], in series [10] and in [11] was “Active” each time. In series [3], this compound yielded an EC50 of 1000 nM.

`CNC(=O)c1cc(Oc2ccc3oc(Nc4ccc(Oc5ccccc5)cc4)nc3c2)ccn1`: the IC50 in series [1] came out at 53 nM; in series [2] it was 680 nM.

`CCCCc1ccc(Nc2nc3cc(Oc4ccnc(C(=O)NC)c4)ccc3s2)cc1`: the IC50 worked out at 9 nM in series [1] and 65 nM in series [2].

With `CNC(=O)c1cc(Oc2ccc3sc(Nc4ccc(C(C)C)cc4)nc3c2)ccn1`, the IC50 in series [1] stood at 3 nM; in series [2] it was 19 nM. Moreover, the EC50 in series [3] came to 3200 nM.

As for `CNC(=O)c1cc(Oc2ccc3sc(Nc4ccc(Cl)cc4)nc3c2)ccn1`, the 50% inhibitory concentration (IC50) was 4 nM in series [1] and 15 nM in series [2].

Take `CNC(=O)c1cc(Oc2ccc3oc(Nc4ccccc4F)nc3c2)ccn1`: the values for the IC50 in [1] and in series [2] were 200 nM and 580 nM, respectively.

Consider `O=C(NCCN1CCOCC1)c1cc(Oc2ccc3sc(Nc4ccc(Br)cc4)nc3c2)ccn1`, for which the IC50 was 41 nM in [1] and 240 nM in series [2]. In addition, the EC50 in series [3] was more than 10000 nM.

Take `CCc1ccc(Nc2nc3cc(Oc4ccnc(C(=O)NC)c4)ccc3o2)cc1`: the Vd with Mus musculus worked out at 0.082 L/kg. This compound gave a half-life in series [4] of 32 min. The IC50 in series [1] stood at 1 nM; in series [2], 5 nM. In series [5], this compound came in with a CL/F of 0.93 mL/min/kg. This compound also registered an EC50 in [3] of 7000 nM. The same compound registered a bioavailability in [6] of 33%.

On to `CNC(=O)c1cc(Oc2ccc3oc(Nc4ccccc4Cl)nc3c2)ccn1`, for which the IC50 turned out to be 120 nM in series [1] and 260 nM in series [2].

For `CCc1ccccc1Nc1nc2cc(Oc3ccnc(C(=O)NC)c3)ccc2o1`, the IC50 in series [1] worked out at 110 nM; in series [2], 340 nM.

Turning to `CCN1CCN(c2ccc(Nc3nc4cc(Oc5ccnc(C(=O)NC)c5)ccc4o3)cc2)CC1`, the IC50 in series [1] is 7300 nM; in series [2], 17000 nM.

Regarding `CCCCc1ccc(Nc2nc3cc(Oc4ccnc(C(=O)NC)c4)ccc3o2)cc1`, the IC50 came out at 2 nM in series [1] and 11 nM in [2].

For the compound `CNC(=O)c1cc(Oc2ccc3sc(Nc4cccc(C(C)(C)C)c4)nc3c2)ccn1`, the IC50 turned out to be 1 nM in [1] and 4 nM in [2]. Further, the inhibition result in [7], in series [8], in [9], in series [10] and in series [11] was “Active” throughout. In series [3], this compound registered a 50% effective concentration (EC50) of 2100 nM.

As for `CNC(=O)c1cc(Oc2ccc3sc(Nc4ccc(OC(F)(F)F)cc4)nc3c2)ccn1`, the half-inhibitory concentration (IC50) in series [1] was 4 nM; in series [2] it was 18 nM.

For the compound `CNC(=O)c1cc(Oc2ccc3oc(Nc4ccc(C(C)C)cc4)nc3c2)ccn1`, the IC50 in series [1] came out at 1 nM; in [2], 6 nM.

As for `CNC(=O)c1cc(Oc2ccc3oc(Nc4cccc(C(F)(F)F)c4)nc3c2)ccn1`, the IC50 in series [1] worked out at 27 nM; in series [2] it was 110 nM.

In the case of `CNC(=O)c1cc(Oc2ccc3oc(Nc4ccc(OC(F)(F)F)cc4)nc3c2)ccn1`, the IC50 in series [1] was 2 nM; in [2] it was 12 nM.
